Where two headings read alike, the source gives them in different places.
Assays:
[1] = test system: Multicellular spheroids with hASC and MDA-MB-231; assay: Permeability value (PV) in the 3D tumor model; settings: PV = EffA:M - 1/2(EffASC + EffMDA), Equation (4)
Experimental: Therefore, we defined the permeability value (PV) of each drug as the difference in efficacy in multicellular and monocellular spheroids, as determined by Equation (4).
After treating the drug with spheroids for 2 days, the efficacy of the drug was evaluated by CellTiter‐Glo® 3D Cell Viability Assay (Promega). […] (4) PV=EffA:M−1/2EffASC+EffMDA.

[2] = test system: MDA-MB-231 monocellular spheroids; assay: Drug efficacy in MDA-MB-231 monocellular spheroids; format: cell-based, human; settings: drug at IC50 of MDA-MB-231 monolayer cells, 2 days
Experimental: (§1) To form 3D multicellular tumor spheroids, cells was trypsinized and suspended in the growth media. Stromal cells and breast cancer cells were plated with a density of 5 × 10^3 cells /25 μL into 96‐well plate precoated with poly‐HEMA, respectively, resulting in 1 × 10^4 cells exist per each well. After seeding, the plate was centrifuged for 2 min at 1000 rpm to collect the cells in the center of the well. Fifty microliters of 10% Matrigel® Basement Membrane Matrix (Corning, NY, USA) solution diluted in media was gently added into the plate on ice to prevent matrigel from gelation. Monocellular spheroids were generated by a single culture of stromal cells or breast cancer cells. Cells were seeded with a density of 1 × 10^4 cells per well with 50 μL of 10% matrigel on a poly‐HEMA‐coated plate. Then, the plate with cells and matrigel was centrifuged at 1000 rpm for 2 min, and incubated for 48 h at 37°C with 5% CO2.

[3] = test system: MDA-MB-231 cells; assay: IC50 in MDA-MB-231 monolayer cells; format: cell-based, human; settings: Homo sapiens
[4] = test system: hASC monocellular spheroids; assay: Drug efficacy in hASC monocellular spheroids; format: cell-based, human; settings: drug at IC50 of MDA-MB-231 monolayer cells, 2 days
Experimental: as §1

[5] = test system: hBMSC-co-cultured spheroids (B:M); assay: Drug penetration (intrinsic fluorescence) in hBMSC-co-cultured tumor spheroids; format: cell-based, human; settings: 10 μM, 48 h, fluorescence microscopy
Experimental: (§2) We next tested whether ECM deposition on the surface of spheroids would affect the penetration of anticancer drugs and their efficacy. Three types of 3D multicellular tumor spheroids were formed and treated with 10 μM doxorubicin, epirubicin, or topotecan, which are chemotherapeutic agents for various tumors, including breast cancer, for an additional 48 h.
as §1
(§3) Spheroids were transferred to an opaque‐walled multiwall plate and analyzed by ATP‐based cell viability assays using Real Time‐Glo™ MT Cell Viability Assay (Promega, Madison, WI, USA) according to the manufacturer's protocol. […] Necrotic cells of spheroids were analyzed in Real Time‐Glo™ Annexin V Necrosis Assay (Promega) following the manufacturer's instructions. Luminescence was measured using a Glomax discovery multi Microplate Reader (Glomax discovery, Promega) with an integration time of 0.25–1.0 s per well.

[6] = test system: 3D multicellular tumor spheroids; assay: Necrosis in tumor spheroids, Real Time-Glo Annexin V Necrosis Assay; format: cell-based, human; settings: A:M spheroids with control siRNA or siTIMP-1 hASCs
[7] = test system: hASC-co-cultured spheroids (A:M); assay: Drug penetration (intrinsic fluorescence) in hASC-co-cultured tumor spheroids; format: cell-based, human; settings: for Amount of drug inside the spheroids compared to other spheroids: 10 μM, 48 h, fluorescence microscopy, vs hBMSC- or hDF-co-cultured spheroids; for Amount of drug penetrating the spheroids, TIMP-1 silencing vs control siRNA: hASCs transfected with siTIMP-1, 48 h treatment
Experimental: as §2, §1, §3

[8] = test system: hDF-co-cultured spheroids (F:M); assay: Drug penetration (intrinsic fluorescence) in hDF-co-cultured tumor spheroids; format: cell-based, human; settings: 10 μM, 48 h, fluorescence microscopy
Experimental: as §2, §1, §3

[9] = test system: hASC-co-cultured spheroids (A:M); assay: Drug efficacy in multicellular tumor spheroids, Real Time-Glo MT Cell Viability Assay; format: cell-based, human; settings: hASCs transfected with siTIMP-1, 48 h treatment
Experimental: as §3

[10] = MDA-MB-231 monolayer cells, read-out: MDA-MB-231 IC50

SMILES	Experiment's PV #1 [1]	Experiment's PV #2 [1]	Experiment's PV #3 [1]	MDA spheroid Efficacy (EffMDA, %) [2]	IC50 [3, 10]	hASC spheroid Efficacy (EffASC, %) [4]	Distribution of drug inside the spheroids [5]	Necrotic cells after drug treatment [6]	Amount of drug inside the spheroids compared to other spheroids [7]	Amount of drug penetrating the spheroids, TIMP-1 silencing vs control siRNA [7]	Distribution of drug inside the spheroids [8]	Drug efficacy, TIMP-1-silenced hASCs vs control [9]	IC50 ([3]; MDA-MB-231, read-out: MDA-MB-231 IC50)
CN(C)c1nc(N(C)C)nc(N(C)C)n1 [Altretamine]	0.025	0.062	-0.012	36.883%	64.5 µM	41.038%							
COC(=O)[C@]12CCC(C)(C)C[C@H]1[C@H]1C(=O)C=C3[C@@]4(C)C=C(C#N)C(=O)C(C)(C)[C@@H]4CC[C@@]3(C)[C@]1(C)CC2 [Bardoxolone-methyl]				-35.997%	2.16 µM	38.156%							
CCCCCOC(=O)Nc1nc(=O)n([C@@H]2O[C@H](C)[C@@H](O)[C@H]2O)cc1F [Capecitabine]	0.000	0.001	0.000	99.873%	95 µM	99.895%							
COc1cccc2c1C(=O)c1c(O)c3c(c(O)c1C2=O)C[C@@](O)(C(=O)CO)C[C@@H]3O[C@H]1C[C@H](N)[C@H](O)[C@H](C)O1 [Doxorubicin, doxorubicin]							distributed throughout	Few necrotic cells	significant reduction	significantly increased	distributed throughout	significantly increased	
COc1cc([C@@H]2c3cc4c(cc3[C@@H](O[C@@H]3O[C@@H]5CO[C@@H](C)O[C@H]5[C@H](O)[C@H]3O)[C@H]3COC(=O)[C@H]23)OCO4)cc(OC)c1O [Etoposide]	0.029	0.043	0.016	64.897%	32.6 µM	73.263%							
CC#C[C@]1(O)CC[C@H]2[C@@H]3CCC4=CC(=O)CCC4=C3[C@@H](c3ccc(N(C)C)cc3)C[C@@]21C [Mifepristone]				46.672%	15.4 µM	91.524%							
CO[C@@]12[C@H](COC(N)=O)C3=C(C(=O)C(C)=C(N)C3=O)N1C[C@@H]1N[C@@H]12 [Mitomycin-c]	-0.071	-0.097	-0.045	53.401%	17.5 µM	64.309%							
CC(=O)O[C@H]1C(=O)[C@@]2(C)[C@H]([C@H](OC(=O)c3ccccc3)[C@]3(O)C[C@H](OC(=O)[C@H](O)[C@@H](NC(=O)c4ccccc4)c4ccccc4)C(C)=C1C3(C)C)[C@]1(OC(C)=O)CO[C@@H]1C[C@@H]2O [Paclitaxel]	-0.047	-0.071	-0.023	72.690%	2.38 µM	97.404%							
C/C(=C\c1csc(C)n1)[C@@H]1C[C@@H]2O[C@]2(C)CCC[C@H](C)[C@H](O)[C@@H](C)C(=O)C(C)(C)[C@@H](O)CC(=O)O1 [Patupilone, Patupilone (epothilone-b)]	-0.039	-0.067	-0.010	23.781%	33.4 µM	34.560%							
CC[C@@]1(O)C(=O)OCc2c1cc1n(c2=O)Cc2cc3c([N+](=O)[O-])cccc3nc2-1 [Rubitecan]				25.373%	0.82 µM	17.266%							
CNCc1ccc(-c2[nH]c3cc(F)cc4c3c2CCNC4=O)cc1 [Rucaparib]				92.185%	72.3 µM	99.818%							
CCc1c2c(nc3ccc(O)cc13)-c1cc3c(c(=O)n1C2)COC(=O)[C@]3(O)CC [SN38, 7-ethyl-10-hydroxycamptothecin]	0.031	0.035	0.027	58.491%	1.87 µM	60.449%							
Cn1ncnc1[C@H]1c2n[nH]c(=O)c3cc(F)cc(c23)N[C@@H]1c1ccc(F)cc1 [Talazoparib]	0.051	0.057	0.046	75.508%	87.4 µM	99.742%							
COc1ccc(N(C)c2nc(C)nc3ccccc23)cc1 [Verubulin]	0.039	0.029	0.085	5.173%		24.939%							0.01 µM
CC[C@]1(O)C[C@@H]2CN(CCc3c([nH]c4ccccc34)[C@@](C(=O)OC)(c3cc4c(cc3OC)N(C)[C@H]3[C@@](O)(C(=O)OC)[C@H](OC(C)=O)[C@]5(CC)C=CCN6CC[C@]43[C@@H]65)C2)C1 [Vinblastine]	-0.060	-0.020	-0.100	9.274%	1.83 µM	25.299%							
CC[C@@]1(O)C(=O)OCc2c1cc1n(c2=O)Cc2cc3c(CN(C)C)c(O)ccc3nc2-1 [topotecan]							distributed throughout	Few necrotic cells	significant reduction	significantly increased	distributed throughout	significantly increased	
